In ChEMBL document CHEMBL5375952, “Discovery of Novel 8-Hydroxyquinoline Derivatives with Potent In Vitro and In Vivo Antifungal Activity” (J Med Chem, 2023):
≈ marks a conversion by molar mass, not a printed value.

What was measured:
Cryptococcus neoformans [1] = assay: Antifungal activity against Cryptococcus neoformans HN17 assessed as fungal growth inhibition incubated for 48 hrs by broth microdilution method; type: functional
Nakaseomyces glabratus [2] = assay: Antifungal activity against Candida glabrata 201 assessed as fungal growth inhibition incubated for 48 hrs by broth microdilution method; type: functional
Cryptococcus neoformans [3] = assay: Antifungal activity against Cryptococcus neoformans HN19 assessed as fungal growth inhibition incubated for 48 hrs by broth microdilution method; type: functional
Cryptococcus neoformans [4] = assay: Antifungal activity against Cryptococcus neoformans 444 assessed as fungal growth inhibition incubated for 48 hrs by broth microdilution method; type: functional
Pichia kudriavzevii [5] = assay: Antifungal activity against Candida krusei 472 assessed as fungal growth inhibition incubated for 48 hrs by broth microdilution method; type: functional
Pichia kudriavzevii [6] = assay: Antifungal activity against Candida krusei 68 assessed as fungal growth inhibition incubated for 48 hrs by broth microdilution method; type: functional
Cryptococcus neoformans [7] = assay: Antifungal activity against Cryptococcus neoformans HN2-40 assessed as fungal growth inhibition incubated for 48 hrs by broth microdilution method; type: functional
Candida albicans [8] = assay: Antifungal activity against Candida albicans 337 assessed as fungal growth inhibition incubated for 48 hrs by broth microdilution method; type: functional
Candida albicans [9] = assay: Antifungal activity against Candida albicans 338 assessed as fungal growth inhibition incubated for 48 hrs by broth microdilution method; type: functional
Cryptococcus neoformans [10] = assay: Antifungal activity against Cryptococcus neoformans 443 assessed as fungal growth inhibition incubated for 48 hrs by broth microdilution method; type: functional
Cryptococcus neoformans [11] = assay: Antifungal activity against Cryptococcus neoformans 56992 assessed as fungal growth inhibition incubated for 48 hrs by broth microdilution method; type: functional
Aspergillus fumigatus [12] = assay: Antifungal activity against Aspergillus fumigatus A assessed as fungal growth inhibition incubated for 48 hrs by broth microdilution method; type: functional
[Candida] auris [13] = Antifungal activity against Candida auris 277 assessed as fungal growth inhibition incubated for 48 hrs by broth microdilution method; type: functional; settings: Candidozyma auris
Candida albicans [14] = assay: Antifungal activity against Candida albicans 21 assessed as fungal growth inhibition incubated for 48 hrs by broth microdilution method; type: functional
Cryptococcus neoformans [15] = assay: Antifungal activity against Cryptococcus neoformans HN1 assessed as fungal growth inhibition incubated for 48 hrs by broth microdilution method; type: functional
Candida parapsilosis [16] = assay: Antifungal activity against Candida parapsilosis 106 assessed as fungal growth inhibition incubated for 48 hrs by broth microdilution method; type: functional; settings: Lodderomyces parapsilosis
[17] = Antifungal activity against Cryptococcus gattii SCZ20024 assessed as fungal growth inhibition incubated for 48 hrs by broth microdilution method; type: functional, Cryptococcus gattii VGI
Cryptococcus neoformans [18] = assay: Antifungal activity against Cryptococcus neoformans HN15 assessed as fungal growth inhibition incubated for 48 hrs by broth microdilution method; type: functional
Candida albicans [19] = assay: Antifungal activity against Candida albicans 25 assessed as fungal growth inhibition incubated for 48 hrs by broth microdilution method; type: functional
[20] = Antifungal activity against Cryptococcus gattii WM178 assessed as fungal growth inhibition incubated for 48 hrs by broth microdilution method; type: functional, Cryptococcus gattii VGI
Candida tropicalis [21] = assay: Antifungal activity against Candida tropicalis 172 assessed as fungal growth inhibition incubated for 48 hrs by broth microdilution method; type: functional
Candida albicans [22] = assay: Antifungal activity against Candida albicans 22 assessed as fungal growth inhibition incubated for 48 hrs by broth microdilution method; type: functional
Candida parapsilosis [23] = assay: Antifungal activity against Candida parapsilosis ATCC22019 assessed as fungal growth inhibition incubated for 48 hrs by broth microdilution method; type: functional; settings: Lodderomyces parapsilosis
Cryptococcus neoformans [24] = assay: Antifungal activity against Cryptococcus neoformans BJ3 assessed as fungal growth inhibition incubated for 48 hrs by broth microdilution method; type: functional
Cryptococcus neoformans [25] = assay: Antifungal activity against Cryptococcus neoformans HN20 assessed as fungal growth inhibition incubated for 48 hrs by broth microdilution method; type: functional
Pichia kudriavzevii [26] = assay: Antifungal activity against Candida krusei 471 assessed as fungal growth inhibition incubated for 48 hrs by broth microdilution method; type: functional
Candida tropicalis [27] = assay: Antifungal activity against Candida tropicalis 184 assessed as fungal growth inhibition incubated for 48 hrs by broth microdilution method; type: functional
[Candida] auris [28] = Antifungal activity against Candida auris 278 assessed as fungal growth inhibition incubated for 48 hrs by broth microdilution method; type: functional; settings: Candidozyma auris
Candida albicans [29] = assay: Antifungal activity against Candida albicans SC5314 assessed as fungal growth inhibition incubated for 48 hrs by broth microdilution method; type: functional
Nakaseomyces glabratus [30] = assay: Antifungal activity against Candida glabrata 222 assessed as fungal growth inhibition incubated for 48 hrs by broth microdilution method; type: functional
[31] = Antifungal activity against Cryptococcus gattii WM179 assessed as fungal growth inhibition incubated for 48 hrs by broth microdilution method; type: functional, Cryptococcus gattii VGI
[Candida] auris [32] = Antifungal activity against Candida auris 887 assessed as fungal growth inhibition incubated for 48 hrs by broth microdilution method; type: functional; settings: Candidozyma auris
Nakaseomyces glabratus [33] = assay: Antifungal activity against Candida glabrata 202 assessed as fungal growth inhibition incubated for 48 hrs by broth microdilution method; type: functional
[34] = Antifungal activity against Cryptococcus gattii SCZ20031 assessed as fungal growth inhibition incubated for 48 hrs by broth microdilution method; type: functional, Cryptococcus gattii VGI
Aspergillus fumigatus [35] = assay: Antifungal activity against Aspergillus fumigatus 7544 assessed as fungal growth inhibition incubated for 48 hrs by broth microdilution method; type: functional
Candida tropicalis [36] = assay: Antifungal activity against Candida tropicalis 176 assessed as fungal growth inhibition incubated for 48 hrs by broth microdilution method; type: functional
Candida parapsilosis [37] = assay: Antifungal activity against Candida parapsilosis 104 assessed as fungal growth inhibition incubated for 48 hrs by broth microdilution method; type: functional; settings: Lodderomyces parapsilosis
Cryptococcus neoformans [38] = assay: Antifungal activity against Cryptococcus neoformans SH68 assessed as fungal growth inhibition incubated for 48 hrs by broth microdilution method; type: functional
[Candida] auris [39] = Antifungal activity against Candida auris CBS 12372 assessed as fungal growth inhibition incubated for 48 hrs by broth microdilution method; type: functional; settings: Candidozyma auris
Pichia kudriavzevii [40] = assay: Antifungal activity against Candida krusei 474 assessed as fungal growth inhibition incubated for 48 hrs by broth microdilution method; type: functional
Cryptococcus neoformans [41] = assay: Antifungal activity against Cryptococcus neoformans H99 assessed as fungal growth inhibition incubated for 48 hrs by broth microdilution method; type: functional
Nakaseomyces glabratus [42] = assay: Antifungal activity against Candida glabrata 204 assessed as fungal growth inhibition incubated for 48 hrs by broth microdilution method; type: functional
Candida tropicalis [43] = assay: Antifungal activity against Candida tropicalis 178 assessed as fungal growth inhibition incubated for 48 hrs by broth microdilution method; type: functional
Candida tropicalis [44] = assay: Antifungal activity against Candida tropicalis 182 assessed as fungal growth inhibition incubated for 48 hrs by broth microdilution method; type: functional
[Candida] auris [45] = Antifungal activity against Candida auris 276 assessed as fungal growth inhibition incubated for 48 hrs by broth microdilution method; type: functional; settings: Candidozyma auris
Cryptococcus neoformans [46] = assay: Antifungal activity against Cryptococcus neoformans 445 assessed as fungal growth inhibition incubated for 48 hrs by broth microdilution method; type: functional
[47] = Antifungal activity against Cryptococcus gattii E566 assessed as fungal growth inhibition incubated for 48 hrs by broth microdilution method; type: functional, Cryptococcus gattii VGI
Candida parapsilosis [48] = assay: Antifungal activity against Candida parapsilosis 125 assessed as fungal growth inhibition incubated for 48 hrs by broth microdilution method; type: functional; settings: Lodderomyces parapsilosis
Cryptococcus neoformans [49] = assay: Antifungal activity against Cryptococcus neoformans HN2 assessed as fungal growth inhibition incubated for 48 hrs by broth microdilution method; type: functional
Pichia kudriavzevii [50] = assay: Antifungal activity against Candida krusei 477 assessed as fungal growth inhibition incubated for 48 hrs by broth microdilution method; type: functional
Nakaseomyces glabratus [51] = assay: Antifungal activity against Candida glabrata 205 assessed as fungal growth inhibition incubated for 48 hrs by broth microdilution method; type: functional
Candida parapsilosis [52] = assay: Antifungal activity against Candida parapsilosis 105 assessed as fungal growth inhibition incubated for 48 hrs by broth microdilution method; type: functional; settings: Lodderomyces parapsilosis
Aspergillus fumigatus [53] = assay: Antifungal activity against Aspergillus fumigatus 023-12 assessed as fungal growth inhibition incubated for 48 hrs by broth microdilution method; type: functional

Compound: CCN(CC)c1ccc(C(NC(=O)C(C)C)c2ccc3cccnc3c2O)cc1 (stereo not drawn)
- MIC (Cryptococcus neoformans [1]): 0.063 µg/mL (≈ 0.161 µM)
- MIC (Nakaseomyces glabratus [2]): 0.032 µg/mL (≈ 0.0817 µM)
- MIC (Cryptococcus neoformans [3]): 0.063 µg/mL (≈ 0.161 µM)
- MIC (Cryptococcus neoformans [4]): 0.016 µg/mL (≈ 0.0409 µM)
- MIC (Pichia kudriavzevii [5]): 0.125 µg/mL (≈ 0.319 µM)
- MIC (Pichia kudriavzevii [6]): 0.032 µg/mL (≈ 0.0817 µM)
- MIC (Cryptococcus neoformans [7]): < 0.016 µg/mL
- MIC (Candida albicans [8]): 0.032 µg/mL (≈ 0.0817 µM)
- MIC (Candida albicans [9]): 0.063 µg/mL (≈ 0.161 µM)
- MIC (Cryptococcus neoformans [10]): 0.016 µg/mL (≈ 0.0409 µM)
- MIC (Cryptococcus neoformans [11]): 0.032 µg/mL (≈ 0.0817 µM)
- MIC (Aspergillus fumigatus [12]): 0.5 µg/mL (≈ 1.28 µM)
- MIC ([Candida] auris [13]): 0.063 µg/mL (≈ 0.161 µM)
- MIC (Candida albicans [14]): ≤ 0.125 µg/mL
- MIC (Cryptococcus neoformans [15]): 0.063 µg/mL (≈ 0.161 µM)
- MIC (Candida parapsilosis [16]): 0.063 µg/mL (≈ 0.161 µM)
- MIC [17]: 0.031 µg/mL (≈ 0.0792 µM)
- MIC (Cryptococcus neoformans [18]): 0.063 µg/mL (≈ 0.161 µM)
- MIC (Candida albicans [19]): 0.063 µg/mL (≈ 0.161 µM)
- MIC [20]: 0.031 µg/mL (≈ 0.0792 µM)
- MIC (Candida tropicalis [21]): 0.063 µg/mL (≈ 0.161 µM)
- MIC (Candida albicans [22]): 0.063 µg/mL (≈ 0.161 µM)
- MIC (Candida parapsilosis [23]): 0.125 µg/mL (≈ 0.319 µM)
- MIC (Cryptococcus neoformans [24]): 0.063 µg/mL (≈ 0.161 µM)
- MIC (Cryptococcus neoformans [25]): 0.016 µg/mL (≈ 0.0409 µM)
- MIC (Pichia kudriavzevii [26]): 0.032 µg/mL (≈ 0.0817 µM)
- MIC (Candida tropicalis [27]): 0.125 µg/mL (≈ 0.319 µM)
- MIC ([Candida] auris [28]): 0.125 µg/mL (≈ 0.319 µM)
- MIC (Candida albicans [29]): 0.063 µg/mL (≈ 0.161 µM)
- MIC (Nakaseomyces glabratus [30]): 0.125 µg/mL (≈ 0.319 µM)
- MIC [31]: 0.031 µg/mL (≈ 0.0792 µM)
- MIC ([Candida] auris [32]): 0.25 µg/mL (≈ 0.639 µM)
- MIC (Nakaseomyces glabratus [33]): 0.032 µg/mL (≈ 0.0817 µM)
- MIC [34]: 0.031 µg/mL (≈ 0.0792 µM)
- MIC (Aspergillus fumigatus [35]): 1 µg/mL (≈ 2.55 µM)
- MIC (Candida tropicalis [36]): 0.016 µg/mL (≈ 0.0409 µM)
- MIC (Candida parapsilosis [37]): 0.016 µg/mL (≈ 0.0409 µM)
- MIC (Cryptococcus neoformans [38]): < 0.016 µg/mL
- MIC ([Candida] auris [39]): 0.063 µg/mL (≈ 0.161 µM)
- MIC (Pichia kudriavzevii [40]): 0.125 µg/mL (≈ 0.319 µM)
- MIC (Cryptococcus neoformans [41]): 0.125 µg/mL (≈ 0.319 µM)
- MIC (Nakaseomyces glabratus [42]): 0.016 µg/mL (≈ 0.0409 µM)
- MIC (Candida tropicalis [43]): 0.032 µg/mL (≈ 0.0817 µM)
- MIC (Candida tropicalis [44]): 0.125 µg/mL (≈ 0.319 µM)
- MIC ([Candida] auris [45]): 0.063 µg/mL (≈ 0.161 µM)
- MIC (Cryptococcus neoformans [46]): 0.016 µg/mL (≈ 0.0409 µM)
- MIC [47]: 0.031 µg/mL (≈ 0.0792 µM)
- MIC (Candida parapsilosis [48]): 0.125 µg/mL (≈ 0.319 µM)
- MIC (Cryptococcus neoformans [49]): 0.063 µg/mL (≈ 0.161 µM)
- MIC (Pichia kudriavzevii [50]): 0.125 µg/mL (≈ 0.319 µM)
- MIC (Nakaseomyces glabratus [51]): 0.125 µg/mL (≈ 0.319 µM)
- MIC (Candida parapsilosis [52]): 0.125 µg/mL (≈ 0.319 µM)
- MIC (Aspergillus fumigatus [53]): 0.5 µg/mL (≈ 1.28 µM)
